Drawing on US20250136578A1 (Kolm Therapeutics Inc., priority 2023, published 2025), this text covers EC50 and IC50 for twelve compounds.

Broadly, the IC50 is the point on the concentration scale where inhibition reaches its midpoint.

In assay [1] the target is AR / CBP ternary complex (Homo sapiens, UniProt P10275+Q92793). As to the kind of experiment: Ternary complex formation assay (sandwich ELISA, AR capture, CBP antibody detection) in VCaP cell lysates. It is filed as cell-based. The conditions noted are these: treated 1.5 hours, rabbit CBP or p300 antibody detection, average, read-out: Average Ternary Complex. The gist of the method:
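VCaP cells in 5% charcoal-stripped FBS were cultured ≥3 days and then given bifunctional compound for 1.5 h. Lysates went onto AR-antibody-coated plates. Bound CBP (or p300) was detected with a rabbit antibody plus HRP anti-rabbit, using QuantaRed chemifluorescence (ex 570/em 585) read immediately, at 5 min and at 15 min.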

Assay [2] has as its system VCaP cells. Put plainly: VCaP growth inhibition assay (CTG). It is filed as cell-based. The conditions noted are these: Homo sapiens, 216 h, 30 pM R1881, 9 days. The gist of the method: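 VCaP cells in phenol red-free DMEM with 5% charcoal-stripped serum were stimulated with 30 pM R1881 (final) and treated with compound from 100 nM to 10 fM final (1:5 dilutions) for 9 days at 37 °C. Viability was read by CellTiter-Glo luminescence, and IC50 came from 4-parameter logistic fits.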

AR / CBP ternary complex, sequence (P10275 whole entry): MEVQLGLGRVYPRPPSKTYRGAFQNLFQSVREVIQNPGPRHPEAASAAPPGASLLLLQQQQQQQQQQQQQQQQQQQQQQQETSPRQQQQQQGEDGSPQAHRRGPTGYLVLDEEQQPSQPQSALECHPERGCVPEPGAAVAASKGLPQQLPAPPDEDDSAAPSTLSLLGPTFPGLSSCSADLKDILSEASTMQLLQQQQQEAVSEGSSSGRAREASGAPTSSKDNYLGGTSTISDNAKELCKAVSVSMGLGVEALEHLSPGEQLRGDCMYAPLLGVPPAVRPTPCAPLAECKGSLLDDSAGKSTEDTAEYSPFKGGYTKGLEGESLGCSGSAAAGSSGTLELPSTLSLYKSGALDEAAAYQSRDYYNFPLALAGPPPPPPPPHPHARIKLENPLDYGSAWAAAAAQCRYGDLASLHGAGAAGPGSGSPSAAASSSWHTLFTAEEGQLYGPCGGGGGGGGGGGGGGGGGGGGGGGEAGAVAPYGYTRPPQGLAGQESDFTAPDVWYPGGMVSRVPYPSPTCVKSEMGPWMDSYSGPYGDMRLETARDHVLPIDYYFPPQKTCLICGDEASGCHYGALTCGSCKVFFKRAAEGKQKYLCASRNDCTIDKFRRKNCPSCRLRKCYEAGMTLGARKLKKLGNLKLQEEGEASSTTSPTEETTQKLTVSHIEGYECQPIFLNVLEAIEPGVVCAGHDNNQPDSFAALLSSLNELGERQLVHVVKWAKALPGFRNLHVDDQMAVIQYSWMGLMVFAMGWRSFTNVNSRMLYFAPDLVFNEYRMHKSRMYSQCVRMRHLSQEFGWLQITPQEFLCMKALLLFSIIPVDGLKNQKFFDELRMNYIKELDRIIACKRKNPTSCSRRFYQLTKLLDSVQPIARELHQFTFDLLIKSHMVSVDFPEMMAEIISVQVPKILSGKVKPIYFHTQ
AR / CBP ternary complex, sequence (Q92793 2-2442): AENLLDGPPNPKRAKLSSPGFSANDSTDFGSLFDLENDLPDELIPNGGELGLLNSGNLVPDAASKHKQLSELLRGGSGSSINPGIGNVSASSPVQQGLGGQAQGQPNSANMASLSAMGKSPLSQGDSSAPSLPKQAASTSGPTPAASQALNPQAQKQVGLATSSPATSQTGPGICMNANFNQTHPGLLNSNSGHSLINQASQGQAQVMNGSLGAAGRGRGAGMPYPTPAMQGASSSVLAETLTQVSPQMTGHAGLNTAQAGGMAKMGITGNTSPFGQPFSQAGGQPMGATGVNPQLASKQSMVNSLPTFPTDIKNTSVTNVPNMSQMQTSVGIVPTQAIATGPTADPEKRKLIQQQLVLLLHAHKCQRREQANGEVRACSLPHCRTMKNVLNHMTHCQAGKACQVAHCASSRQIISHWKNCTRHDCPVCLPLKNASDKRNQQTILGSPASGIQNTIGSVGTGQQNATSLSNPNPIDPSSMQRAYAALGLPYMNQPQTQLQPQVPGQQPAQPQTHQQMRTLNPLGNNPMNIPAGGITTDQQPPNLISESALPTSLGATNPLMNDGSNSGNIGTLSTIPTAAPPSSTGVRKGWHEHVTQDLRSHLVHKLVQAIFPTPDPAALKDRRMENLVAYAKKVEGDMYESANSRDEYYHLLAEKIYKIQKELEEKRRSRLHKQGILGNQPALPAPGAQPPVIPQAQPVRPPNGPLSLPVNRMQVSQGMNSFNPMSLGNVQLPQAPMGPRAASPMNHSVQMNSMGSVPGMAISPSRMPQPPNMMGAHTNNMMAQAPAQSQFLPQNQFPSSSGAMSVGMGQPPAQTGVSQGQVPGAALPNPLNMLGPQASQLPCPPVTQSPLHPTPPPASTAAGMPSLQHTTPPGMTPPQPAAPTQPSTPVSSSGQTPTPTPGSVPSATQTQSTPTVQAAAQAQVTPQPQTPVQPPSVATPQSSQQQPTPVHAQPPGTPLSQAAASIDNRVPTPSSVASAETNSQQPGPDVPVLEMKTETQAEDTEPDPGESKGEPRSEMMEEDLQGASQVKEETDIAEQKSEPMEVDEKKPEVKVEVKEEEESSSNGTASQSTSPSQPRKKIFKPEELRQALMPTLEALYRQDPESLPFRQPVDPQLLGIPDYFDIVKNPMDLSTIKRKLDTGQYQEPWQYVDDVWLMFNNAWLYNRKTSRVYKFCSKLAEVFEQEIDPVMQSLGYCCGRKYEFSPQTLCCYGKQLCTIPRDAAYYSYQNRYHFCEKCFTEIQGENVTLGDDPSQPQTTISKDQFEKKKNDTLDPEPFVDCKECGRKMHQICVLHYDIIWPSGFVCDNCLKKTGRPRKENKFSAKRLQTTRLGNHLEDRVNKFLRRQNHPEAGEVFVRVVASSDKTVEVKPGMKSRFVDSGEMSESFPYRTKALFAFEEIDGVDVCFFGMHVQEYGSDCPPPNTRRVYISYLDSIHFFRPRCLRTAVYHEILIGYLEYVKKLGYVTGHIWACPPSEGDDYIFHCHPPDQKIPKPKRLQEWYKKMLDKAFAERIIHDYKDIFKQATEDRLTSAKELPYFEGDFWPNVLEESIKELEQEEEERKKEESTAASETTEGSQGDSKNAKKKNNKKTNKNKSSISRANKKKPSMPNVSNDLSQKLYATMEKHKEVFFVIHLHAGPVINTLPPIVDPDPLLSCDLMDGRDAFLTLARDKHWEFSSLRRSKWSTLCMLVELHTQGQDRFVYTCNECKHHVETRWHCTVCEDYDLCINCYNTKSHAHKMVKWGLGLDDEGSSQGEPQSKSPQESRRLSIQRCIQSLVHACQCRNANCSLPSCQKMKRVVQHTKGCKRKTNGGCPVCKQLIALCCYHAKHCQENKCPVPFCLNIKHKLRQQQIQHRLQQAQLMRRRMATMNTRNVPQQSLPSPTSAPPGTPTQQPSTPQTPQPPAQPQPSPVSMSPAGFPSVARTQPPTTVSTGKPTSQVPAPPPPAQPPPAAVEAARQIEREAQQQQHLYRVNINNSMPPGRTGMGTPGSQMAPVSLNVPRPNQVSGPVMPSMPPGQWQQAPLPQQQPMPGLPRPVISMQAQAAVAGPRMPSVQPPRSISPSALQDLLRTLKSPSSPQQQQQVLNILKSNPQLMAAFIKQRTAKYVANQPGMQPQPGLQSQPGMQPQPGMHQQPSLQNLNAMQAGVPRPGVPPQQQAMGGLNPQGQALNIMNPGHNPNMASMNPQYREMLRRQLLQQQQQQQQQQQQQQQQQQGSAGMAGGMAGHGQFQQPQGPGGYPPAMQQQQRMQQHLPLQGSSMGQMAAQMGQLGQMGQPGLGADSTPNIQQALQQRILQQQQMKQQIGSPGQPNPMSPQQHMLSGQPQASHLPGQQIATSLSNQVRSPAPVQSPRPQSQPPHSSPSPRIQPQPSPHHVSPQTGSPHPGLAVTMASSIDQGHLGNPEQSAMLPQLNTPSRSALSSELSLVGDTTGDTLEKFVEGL

As to `CC(=O)N1CCc2c(c(N3CCCc4cc(-c5cnn(C)c5)c(C(F)F)cc43)nn2C2CCN(C3CC4(C3)CN(c3ccc(C(=O)N[C@H]5CC[C@H](Oc6ccc(C#N)c(Cl)c6)CC5)nn3)C4)CC2)C1` [Compound 229, 6-[6-[4-[5-acetyl-3-[7-(difluoromethyl)-6-(1-methylpyrazol-4-yl)-3,4-dihydro-2H-quinolin-1-yl]-6,7-dihydro-4H-pyrazolo[4,3-c]pyridin-1-yl]-1-piperidyl]-2-azaspiro[3.3]heptan-2-yl]-N-[4-(3-chloro-4-cyano-phenoxy)cyclohexyl]pyridazine-3-carboxamide], the EC50 in assay [1] was under 1 nM. Also, the IC50 in assay [2] was at most 0.1 nM.

Take `CC(=O)N1CCc2c(c(N3CCCc4cc(-c5cnn(C)c5)c(C(F)F)cc43)nn2C2CCN(CC3CCN(c4ccc(C(=O)N[C@H]5CC[C@H](Oc6ccc(C#N)c(Cl)c6)CC5)nn4)CC3(C)C)CC2)C1` (stereo partly drawn) [Compound 230, 6-[4-[[4-[5-acetyl-3-[7-(difluoromethyl)-6-(1-methylpyrazol-4-yl)-3,4-dihydro-2H-quinolin-1-yl]-6,7-dihydro-4H-pyrazolo[4,3-c]pyridin-1-yl]-1-piperidyl]methyl]-3,3-dimethyl-1-piperidyl]-N-[4-(3-chloro-4-cyano-phenoxy)cyclohexyl]pyridazine-3-carboxamide]: the EC50 in assay [1] is under 1 nM. In assay [2], this compound registered an IC50 of at most 0.1 nM.

As for `CC(=O)N1CCc2c(c(N3CCCc4cc(-c5cnn(C)c5)c(C(F)F)cc43)nn2C2CCN(CC3CCN(c4ccc(C(=O)N[C@H]5CC[C@H](Oc6ccc(C#N)c(Cl)c6)CC5)nn4)CC34CC4)CC2)C1` (stereo partly drawn) [Compound 231, 6-[8-[[4-[5-acetyl-3-[7-(difluoromethyl)-6-(1-methylpyrazol-4-yl)-3,4-dihydro-2H-quinolin-1-yl]-6,7-dihydro-4H-pyrazolo[4,3-c]pyridin-1-yl]-1-piperidyl]methyl]-5-azaspiro[2.5]octan-5-yl]-N-[4-(3-chloro-4-cyano-phenoxy)cyclohexyl]pyridazine-3-carboxamide], the EC50 in assay [1] is under 1 nM. Further, in assay [2], the IC50 was at most 0.1 nM.

Regarding `COC(=O)N1c2ccc3c(nc(Cc4ccccc4)n3[C@H]3CCC[C@H](CN4CCN(c5ccc(C(=O)N[C@H]6CC[C@H](Oc7ccc(C#N)c(Cl)c7)CC6)nn5)CC4)C3)c2CC[C@@H]1C` [Compound 232, methyl (7S)-2-benzyl-3-[(1S,3S)-3-[[4-[6-[[4-(3-chloro-4-cyano-phenoxy)cyclohexyl]carbamoyl]pyridazin-3-yl]piperazin-1-yl]methyl]cyclohexyl]-7-methyl-8,9-dihydro-7H-imidazo[4,5-f]quinoline-6-carboxylate], the EC50 in assay [1] lay in the range of 1 to 10 nM. The IC50 in assay [2] was 1 to 100 nM.

Consider `CC(=O)N1CCc2c(c(N3CCCc4cc(-c5cnn(C)c5)c(C(F)F)cc43)nn2C2CCN(C[C@@H]3CCN(c4ccc(C(=O)N[C@H]5CC[C@H](Oc6ccc(C#N)c(Cl)c6)CC5)nn4)C[C@@H]3C)CC2)C1` [Compound 233], for which, in assay [1], the EC50 is under 1 nM. Also, the IC50 in assay [2] is at most 0.1 nM.

As to `CC(=O)N1CCc2c(c(N3CCCc4cc(-c5cnn(C)c5)c(C(F)F)cc43)nn2C2CCN(C[C@H]3CCN(c4ccc(C(=O)N[C@H]5CC[C@H](Oc6ccc(C#N)c(Cl)c6)CC5)nn4)C[C@H]3C)CC2)C1` [Compound 234], the EC50 in assay [1] was under 1 nM. This compound returned an IC50 in assay [2] of at most 0.1 nM.

For the compound `CC(=O)N1CCc2c(c(N3CCCc4cc(-c5cnn(C)c5)c(C(F)F)cc43)nn2C2CCC3(CC2)CN(C2CN(c4ccc(C(=O)N[C@H]5CC[C@H](Oc6ccc(C#N)c(Cl)c6)CC5)nn4)C2)C3)C1` [Compound 237], the EC50 in assay [1] is under 1 nM. In addition, the IC50 in assay [2] was at most 0.1 nM.

Consider `CC(=O)N1CCc2c(c(N3CCCc4cc(-c5cnn(C)c5)c(C(F)F)cc43)nn2C2CCC3(CC2)CN(C2CCN(c4ccc(C(=O)N[C@H]5CC[C@H](Oc6ccc(C#N)c(Cl)c6)CC5)nn4)CC2)C3)C1` [Compound 238, 6-[4-[7-[5-acetyl-3-[7-(difluoromethyl)-6-(1-methylpyrazol-4-yl)-3,4-dihydro-2H-quinolin-1-yl]-6,7-dihydro-4H-pyrazolo[4,3-c]pyridin-1-yl]-2-azaspiro[3.5]nonan-2-yl]-1-piperidyl]-N-[4-(3-chloro-4-cyano-phenoxy)cyclohexyl]pyridazine-3-carboxamide], for which, in assay [1], the EC50 is under 1 nM. In addition, the IC50 in assay [2] was at most 0.1 nM.

With `CC(=O)N1CCc2c(c(N3CCCc4cc(-c5cnn(C)c5)c(C(F)F)cc43)nn2C2CC3(CCN(C4CCN(c5ccc(C(=O)N[C@H]6CC[C@H](Oc7ccc(C#N)c(Cl)c7)CC6)nn5)CC4)CC3)C2)C1` [Compound 239, 6-[4-[2-[5-acetyl-3-[7-(difluoromethyl)-6-(1-methylpyrazol-4-yl)-3,4-dihydro-2H-quinolin-1-yl]-6,7-dihydro-4H-pyrazolo[4,3-c]pyridin-1-yl]-7-azaspiro[3.5]nonan-7-yl]-1-piperidyl]-N-[4-(3-chloro-4-cyano-phenoxy)cyclohexyl]pyridazine-3-carboxamide], the EC50 in assay [1] is under 1 nM. The half-maximal inhibitory concentration (IC50) in assay [2] is at most 0.1 nM.

In the case of `CC(=O)N1CCc2c(c(N3CCCc4cc(-c5cnn(C)c5)c(C(F)F)cc43)nn2C2CCN([C@H]3C[C@H](Oc4ccc(C(=O)N[C@H]5CC[C@H](Oc6ccc(C#N)c(Cl)c6)CC5)nn4)C3)CC2)C1` [Compound 240, 6-[3-[4-[5-acetyl-3-[7-(difluoromethyl)-6-(1-methylpyrazol-4-yl)-3,4-dihydro-2H-quinolin-1-yl]-6,7-dihydro-4H-pyrazolo[4,3-c]pyridin-1-yl]-1-piperidyl]cyclobutoxy]-N-[4-(3-chloro-4-cyano-phenoxy)cyclohexyl]pyridazine-3-carboxamide], in assay [1], the EC50 was under 1 nM. The same compound gave an IC50 in assay [2] of 0.1 to 1 nM.

In the case of `CC(=O)N1CCc2c(c(N3CCCc4cc(-c5cnn(C)c5)c(C(F)F)cc43)nn2[C@H]2CC[C@H](C3CCC4(CC3)CN(c3ccc(C(=O)N[C@H]5CC[C@H](Oc6ccc(C#N)c(Cl)c6)CC5)nn3)C4)CC2)C1` [Compound 241, 6-[7-[4-[5-acetyl-3-[7-(difluoromethyl)-6-(1-methylpyrazol-4-yl)-3,4-dihydro-2H-quinolin-1-yl]-6,7-dihydro-4H-pyrazolo[4,3-c]pyridin-1-yl]cyclohexyl]-2-azaspiro[3.5]nonan-2-yl]-N-[4-(3-chloro-4-cyano-phenoxy)cyclohexyl]pyridazine-3-carboxamide], in assay [1], the EC50 fell in the range of 1 to 10 nM. The IC50 in assay [2] fell in the range of 0.1 to 1 nM.

For `CC(=O)N1CCc2c(c(N3CCCc4cc(-c5cnn(C)c5)c(C(F)F)cc43)nn2[C@H]2CC[C@@H](C3CCC4(CC3)CN(c3ccc(C(=O)N[C@H]5CC[C@H](Oc6ccc(C#N)c(Cl)c6)CC5)nn3)C4)CC2)C1` [Compound 242, 6-[7-[4-[5-acetyl-3-[7-(difluoromethyl)-6-(1-methylpyrazol-4-yl)-3,4-dihydro-2H-quinolin-1-yl]-6,7-dihydro-4H-pyrazolo[4,3-c]pyridin-1-yl]cyclohexyl]-2-azaspiro[3.5]nonan-2-yl]-N-[4-(3-chloro-4-cyano-phenoxy)cyclohexyl]pyridazine-3-carboxamide], the EC50 in assay [1] is under 1 nM. In assay [2], the IC50 is 0.1 to 1 nM.
